Values after ≈ are worked out from the molar mass of the structure shown.
The compounds below were run on Mycobacterium tuberculosis (assay: Antitubercular activity against Mycobacterium tuberculosis H37Rv by low oxygen recovery assay). Conditions: not given.
Assay type: functional

Structure (SMILES) | MIC
CCCCCCCCCCCCCCC1CCC(=O)O1 (configuration not stated) | > 128 µM
CCCCCCCC/C=C\CCCCC1CCC(=O)O1 (racemic) | 124 µM (≈ 34.8 µg/mL)

Each compound was assayed on Mycobacterium tuberculosis (assay: Antitubercular activity against Mycobacterium tuberculosis H37Rv after 4 days by microplate alamar blue assay). Conditions: 96 h.
Assay type: functional

Structure (SMILES) | MIC
O=C1CCC(CCCCC2CC(C(=O)OCc3ccccc3)=NO2)O1 (configuration not stated) | > 128 µM
CCCCCCOC(=O)C1=NOC(CCCCC2CCC(=O)O2)C1 (configuration not stated) | 63.1 µM
CCOC(=O)c1cc(CCCCC2CCC(=O)O2)on1 (configuration not stated) | > 128 µM
CCCCCCCc1cc(CCCCC2CCC(=O)O2)on1 (configuration not stated) | 63.4 µM
CCCCCCCCCCCCCCC1CCC(=O)O1 (configuration not stated) | > 128 µM
CCCCCCCC/C=C/CCCCC1CCC(=O)O1 (configuration not stated) | 19.7 µM
CCCCCCCC1=NOC(CCCC2CCC(=O)O2)C1 (configuration not stated) | > 128 µM
CC(C)(C)OC(=O)C1=NOC(CCCCC2CCC(=O)O2)C1 (configuration not stated) | > 128 µM
CCCCCCCC1=NOC(CCCCC2CCC(=O)O2)C1 (configuration not stated) | > 128 µM
CCCCCCCC(=O)NCCCCC1CCC(=O)O1 (configuration not stated) | > 128 µM
CCCCCCNC(=O)C1=NOC(CCCCC2CCC(=O)O2)C1 (configuration not stated) | > 128 µM
CCOC(=O)C1=NOC(CCCCC2CCC(=O)O2)C1 (configuration not stated) | > 128 µM
CCCCCCC/C=C\CCCCC1CCC(=O)O1 (configuration not stated) | 14.7 µM
CCCCCCCCNC(=O)CCCCC1CCC(=O)O1 (configuration not stated) | > 128 µM
CCCCCCCCC(=O)NCCCCC1CCC(=O)O1 (configuration not stated) | > 128 µM
CCCCCCCC/C=C\CCCC[C@@H]1CCC(=O)O1 | 1.5 µg/mL
CCCCCCNC(=O)c1cc(CCCCC2CCC(=O)O2)on1 (configuration not stated) | > 128 µM
CCCCCCCCC#CCCCCC1CCC(=O)O1 (configuration not stated) | 44 µM
O=C1CCC(CCCCC2CC(C(=O)O)=NO2)O1 (configuration not stated) | > 128 µM
CCCCCCC1=NOC(CCCC2CCC(=O)O2)C1 (configuration not stated) | > 128 µM
CCCCCCCC/C=C\CCCCC1CCC(=O)O1 (racemic) | 6.9 µM
CCCCCCC1=NOC(CCCCC2CCC(=O)O2)C1 (configuration not stated) | > 128 µM
CCN(CC)C(=O)C1=NOC(CCCCC2CCC(=O)O2)C1 (configuration not stated) | > 128 µM
O=C1CCC(CCCCC2CC(C(=O)NCc3ccccc3)=NO2)O1 (configuration not stated) | > 128 µM
CCCCCCCC#CCCCCC1CCC(=O)O1 (configuration not stated) | 70.2 µM
